In US20140348861A1, “SYNTHETIC PEPTIDES AND RANDOM COPOLYMERS FOR THE TREATMENT OF AUTOIMMUNE DISORDERS” (NATIONAL INSTITUTE OF IMMUNOLOGY, priority 2011, published 2014):
Non-standard residues stand in square brackets, D forms with d. Primed or numbered codes have the meaning given here. No end group written: not given here. Kβ(3) = beta-amino acid residue (Lys analogue); Kβ″ = beta-amino acid residue (K); β3hK = NCCCC[C@H](N)CC(=O)O; β3hA = C[C@H](N)CC(=O)O; Yβ = β-tyrosine

System: SJL/J mice exhibiting MBP (85-109) induced relapsing remitting form of EAE
Assay: Therapeutic activity in MBP (85-109) induced relapsing remitting EAE, treatment from day 11
Assay type: in vivo
Details: SJL/J mice, RR EAE; for Therapeutic activity in comparison to GA (Therapeutic activity (Analogs) − Therapeutic activity GA) / Therapeutic activity in comparison to J5 (Therapeutic activity (Analogs) − Therapeutic activity (J5)): 0.1 mg daily for two weeks; for Therapeutic activity = % reduction in cumulative clinical disability score: synthetic peptides, 0.1 mg daily for two weeks from day 11 post-immunization
Procedure: SJL/J and C57BL6/J mice procured from Jackson's laboratory (Bar Harbor, Me.) were maintained under standard housing conditions in the central animal facility at NII as per institutional ethical committee guidelines. 8-10 week old female SJL/J mice were used throughout the study.
To induce RR EAE or chronic progressive EAE, SJL/J or C57BL6/J mice were immunized subcutaneously with 0.2 mg of MBP (85-109) or 0.1 mg MOG (35-55) emulsified in CFA and 200 ng of pertussis toxin was injected intraperitoneally on day 0 and day 2 so as to permeablize the blood brain barrier. All the animals in various experimental groups were scored daily for clinical disability on a scale of 0-6 where 0=no neurological symptoms, 1=limp tail, 2=weakness of hind limbs or ataxia, 3=incomplete paralysis of hind limbs, 4=complete paralysis of hind limbs, 5=complete paralysis of all four limbs, 6=dead. Diseased animals were provided easy access to food and water.
GA, J91, J92, S101, S102, S103 for two weeks and scored for clinical disability.

| Substance | Therapeutic activity in comparison to GA (Therapeutic activity (Analogs) − Therapeutic activity GA) [%] | Therapeutic activity in comparison to J5 (Therapeutic activity (Analogs) − Therapeutic activity (J5)) [%] | Therapeutic activity = % reduction in cumulative clinical disability score [%] |
| --- | --- | --- | --- |
| EKPKVEAYKAAβAβAβPAβ [Analog S44] | 15.94 | 11.98 | 47.27 |
| EKPKVEAYKAAAAPβ^3Aβ^3 [Analog S2] | 2.139 | −1.818 | 33.48 |
| KVEβAβYβKβAβAβAβAβ [Analog S62] | 5.455 | 1.497 | 36.79 |
| KβVβEAYβKβAβAβAβAβ [Analog S65] | −5.989 | −9.947 | 25.35 |
| Kβ^3Vβ^3EAYβ^3Kβ^3Aβ^3Aβ^3Aβ^3Aβ^3 [Analog S26] | 27.91 | 23.96 | 59.25 |
| EKPKVβEβAβYβKβAβAβAβAβPAβ [Analog S50] | −1.925 | −5.882 | 29.41 |
| Kβ^3Vβ^3Eβ^3AβYβ^3Kβ^3AβAβAβAβ^3 [Analog S81] | 31.12 | 27.17 | 62.46 |
| VβEβAβYβKβ [Analog S77] | −18.8235 | −22.7808 | 12.51 |
| KVβEβAβYβKβ [Analog S70] | −16.8984 | −20.8556 | 14.4385 |
| Vβ^3EAYβ^3Kβ^3 [Analog S40] | 13.9 | 9.947 | 45.24 |
| KVEAYKβAβAβAβAβ [Analog S59] | 12.94 | 8.984 | 44.28 |
| EKPKVEAYβ^3Kβ^3Aβ^3Aβ^3Aβ^3Aβ^3Pβ^3Aβ^3 [Analog S7] | 22.46 | 18.5 | 53.8 |
| KVEβAβYβKβ [Analog S69] | −8.877 | −12.8342 | 22.46 |
| KVEAYKβ^3 (KVEAY[β3hK]) [Analog S28] | −7.38 | −11.3369 | 23.96 |
| VEAβ^3Yβ^3Kβ^3 [Analog S37] | −0.9626 | −4.92 | 30.37 |
| EKPKVEAYKAAAβAβPAβ [Analog S43] | 9.947 | 5.989 | 41.28 |
| VEAYβKβ (VEA[Yβ][Kβ(3)]) [Analog S74] | −9.947 | −13.9037 | 21.39 |
| EβKβPKβ^3Vβ^3Eβ^3AβYβ^3Kβ^3AβAβAβAβ^3PAβ [Analog S79] | 28.77 | 24.81 | 60.11 |
| KVEAYKAAAAβ^3 (KVEAYKAAA[β3hA]) [Analog S17] | −2.032 | −5.989 | 29.3 |

| Substance | Therapeutic activity in comparison to GA (Therapeutic activity (Analogs) − Therapeutic activity GA) [%] | Therapeutic activity in comparison to J5 (Therapeutic activity (Analogs) − Therapeutic activity (J5)) [%] | Therapeutic activity = % reduction in cumulative clinical disability score [%] |
| --- | --- | --- | --- |
| KVEAβ^3Yβ^3Kβ^3 [Analog S30] | 0.8556 | −3.102 | 32.19 |
| KVEAYβKβ (KVEA[Yβ][Kβ″]) [Analog S67] | −12.9412 | −16.8984 | 18.4 |
| KVEβ^3Aβ^3Yβ^3Kβ^3Aβ^3Aβ^3Aβ^3Aβ^3 [Analog S24] | 20.32 | 16.36 | 51.66 |
| EβKβPKβVβEβAβYβKβAβAβAβAβPAβ [Analog S53] | 0.2139 | −3.743 | 31.5508 |
| EβKβPKβ^3Vβ^3Eβ^3AβYβ^3Kβ^3AβAβAβ^3Aβ^3PAβ [Analog S80] | 30.7 | 26.74 | 62.03 |
| KVEAYKAAβ^3Aβ^3Aβ^3 (KVEAYKA[β3hA][β3hA][β3hA]) [Analog S19] | 5.989 | 2.032 | 37.3262 |
| KVEAYKβ^3Aβ^3Aβ^3Aβ^3Aβ^3 [Analog S21] | 17.97 | 14.01 | 49.3 |
| Kβ^3Vβ^3Eβ^3AβYβ^3Kβ^3AβAβAβ^3Aβ^3 [Analog S82] | 31.87 | 27.91 | 63.21 |
| Vβ^3Eβ^3Aβ^3Yβ^3Kβ^3 [Analog S39] | 9.519 | 5.561 | 40.86 |
| KVEAYKAAAβ^3Aβ^3 (KVEAYKAA[β3hA][β3hA]) [Analog S18] | −3.957 | −7.914 | 27.38 |
| EKβ^3Pβ^3Kβ^3Vβ^3Eβ^3Aβ^3Yβ^3Kβ^3Aβ^3Aβ^3Aβ^3Aβ^3Pβ^3Aβ^3 [Analog S14] | 27.91 | 23.96 | 59.25 |
| EKPKVEAYKβ^3Aβ^3Aβ^3Aβ^3Aβ^3Pβ^3Aβ^3 [Analog S6] | 19.47 | 15.51 | 50.8 |
| KVEAYKβ [Analog S66] | −9.412 | −13.369 | 21.93 |
| EKPKVEAYKAAAAPAβ [Analog S41] | 2.032 | −1.925 | 33.37 |
| VEAYKβ (VEAY[Kβ″]) [Analog S73] | −10.0535 | −14.0107 | 21.28 |
| VEAYK (Peptide analog) [Analog J5c, reference compound] | −9.947 | −13.9037 | 21.39 |
| EKPKVEAYKAAβ^3Aβ^3Aβ^3Pβ^3Aβ^3 [Analog S5] | 11.02 | 7.059 | 42.35 |
| VEβ^3Aβ^3Yβ^3Kβ^3 [Analog S38] | −4.813 | −8.77 | 26.52 |
